Measured values from patent publication US9447073B2, “Fungicidal compositions” (Viamet Pharmaceuticals, Inc., priority 2013, dated 2016).
Like-named read-outs stand apart in the source and are kept apart here.

Assays:
[1] = system: Puccinia triticina (Synonym: Puccinia recondita f sp. tritici; Bayer Code PUCCRT); assay: Fungicidal activity: Wheat Brown Rust (PUCCRT), wheat seedlings in greenhouse; type: in vivo; conditions: wheat (variety Yuma)
Experimental: Technical grades of materials were dissolved in acetone, which were then mixed with nine volumes of water containing 110 ppm Triton X-100. The fungicide solutions were applied onto wheat seedlings using an automated booth sprayer to run-off. All sprayed plants were allowed to air dry prior to further handling.
(§1) Wheat plants (variety Yuma) were grown from seed in a greenhouse in 50% mineral soil/50% soil-less Metro mix until the first leaf was fully emerged, with 7-10 seedlings per pot. These plants were inoculated with an aqueous spore suspension of Septoria tritici either prior to or after fungicide treatments. After inoculation the plants were kept in 100% relative humidity (one day in a dark dew chamber followed by two to three days in a lighted dew chamber at 20° C.) to permit spores to germinate and infect the leaf. The plants were then transferred to a greenhouse set at 20° C. for disease to develop. When disease symptoms were fully expressed on the 1st leaves of untreated plants, infection levels were assessed on a scale of 0 to 100 percent disease severity. Percent disease control was calculated using the ratio of disease severity on treated plants relative to untreated plants.
Wheat plants (variety Yuma) were grown from seed in a greenhouse in 50% mineral soil/50% soil-less Metro mix until the first leaf was fully emerged, with 7-10 seedlings per pot. These plants were inoculated with an aqueous spore suspension of Puccinia triticina either prior to or after fungicide treatments. After inoculation the plants were kept in a dark dew room at 22° C. with 100% relative humidity overnight to permit spores to germinate and infect the leaf. The plants were then transferred to a greenhouse set at 24° C. for disease to develop. Fungicide formulation, application and disease assessment followed the procedures as described in Example 18.

[2] = system: Mycosphaerella graminicola (Anamorph: Septoria tritici; Bayer Code SEPTTR); assay: Fungicidal activity: Leaf Blotch of Wheat (SEPTTR), wheat seedlings in greenhouse; type: in vivo; design: key to Disease Control SEPTTR 1DP: A: 80-100; B: More than 0—Less than 80; C: Not Tested; D: No activity noticed in this bioassay; conditions: wheat (variety Yuma); for pest or weed control at 50 ppm: Zymoseptoria tritici
Experimental: as §1, with “Technical grades of materials were dissolved in acetone, which were then mixed with nine volumes of water containing 110 ppm Triton X-100. The fungicide solutions were applied onto wheat seedlings using an automated booth sprayer to run-off. All sprayed plants were allowed to air dry prior to further handling. Wheat” for “Wheat”

[3] = 1DP, read-out: Disease Control PUCCRT 1DP
[4] = 1DP, read-out: Disease Control SEPTTR 1DP
[5] = 3DC, read-out: Disease Control SEPTTR 3DC
[6] = 1DC, read-out: Disease Control PUCCRT 1DC

N#Cc1ccc(Oc2ccc(C(F)(F)C(O)(Cn3nn[nH]c3=S)c3ccc(F)cc3F)nc2)cc1 (centres unmarked) [Compound F2, 4-((6-(2-(2,4-difluorophenyl)-1,1-difluoro-2-hydroxy-3-(5-thioxo-4,5-dihydro-1H-tetrazol-)propyl)pyridin-3-yl)oxy)benzonitrile]
pest or weed control at 50 ppm [1, 3]: 80 to 100% | pest or weed control at 50 ppm [2, 4]: 80 to 100% | pest or weed control at 50 ppm [2, 5]: 80 to 100%

OC(Cn1nn[nH]c1=S)(c1ccc(F)cc1F)C(F)(F)c1ccc(Oc2ccc(C(F)(F)F)cn2)cn1 (centres unmarked) [Compound F8]
pest or weed control at 50 ppm [1, 6]: 80 to 100% | pest or weed control at 50 ppm [1, 3]: 80 to 100% | pest or weed control at 50 ppm [2, 4]: 80 to 100% | pest or weed control at 50 ppm [2, 5]: 80 to 100%

CCSc1nnnn1CC(O)(c1ccc(F)cc1F)C(F)(F)c1ccc(Oc2ccc(C#N)cc2)cn1 (centres unmarked) [Compound F7]
pest or weed control at 50 ppm [1, 6]: 80 to 100% | pest or weed control at 50 ppm [1, 3]: 80 to 100% | pest or weed control at 50 ppm [2, 4]: 0 to 80% | pest or weed control at 50 ppm [2, 5]: 80 to 100%

OC(Cn1nn[nH]c1=S)(c1ccc(F)cc1F)C(F)(F)c1ccc(Oc2ccc(Cl)cn2)cn1 (centres unmarked) [Compound F4]
pest or weed control at 50 ppm [1, 6]: 80 to 100% | pest or weed control at 50 ppm [1, 3]: 80 to 100% | pest or weed control at 50 ppm [2, 4]: 80 to 100% | pest or weed control at 50 ppm [2, 5]: 80 to 100%

OC(Cn1nn[nH]c1=S)(c1ccc(F)cc1F)C(F)(F)c1ccc(OCC(F)(F)F)cn1 (centres unmarked) [Compound F5]
pest or weed control at 50 ppm [1, 6]: 80 to 100% | pest or weed control at 50 ppm [1, 3]: 80 to 100% | pest or weed control at 50 ppm [2, 4]: 80 to 100% | pest or weed control at 50 ppm [2, 5]: 80 to 100%

N#Cc1ccc(Oc2ccc(C(F)(F)C(O)(Cn3nnnc3SCc3ccccc3)c3ccc(F)cc3F)nc2)cc1 (centres unmarked) [Compound F12]
pest or weed control at 50 ppm [1, 3]: 80 to 100% | pest or weed control at 50 ppm [2, 4]: 0 to 80% | pest or weed control at 50 ppm [2, 5]: 80 to 100%

N#Cc1ccc(Oc2ccc(C(F)(F)C(O)(Cn3nnnc3SCC3CC3)c3ccc(F)cc3F)nc2)cc1 (centres unmarked) [Compound F13]
pest or weed control at 50 ppm [1, 3]: 80 to 100% | pest or weed control at 50 ppm [2, 4]: 80 to 100% | pest or weed control at 50 ppm [2, 5]: 80 to 100%

NC(=S)c1ccc(Oc2ccc(C(F)(F)C(O)(Cn3nn[nH]c3=S)c3ccc(F)cc3F)nc2)cc1 (centres unmarked) [Compound F1, 4-((6-(2-(2,4-difluorophenyl)-1,1-difluoro-2-hydroxy-3-(5-thioxo-4,5-dihydro-1H-tetrazol-)propyl)pyridin-3-yl)oxy)benzothioamide]
pest or weed control at 50 ppm [1, 6]: 80 to 100% | pest or weed control at 50 ppm [1, 3]: 80 to 100% | pest or weed control at 50 ppm [2, 4]: 80 to 100% | pest or weed control at 50 ppm [2, 5]: 80 to 100% | melting point: 214 to 218 °C

CSc1nnnn1CC(O)(c1ccc(F)cc1F)C(F)(F)c1ccc(Br)cn1 (centres unmarked) [Compound F6, 1-(5-bromopyridin-2-yl)-2-(2,4-difluorophenyl)-1,1-difluoro-3-(5-(methylthio)-1H-tetrazol-1-yl)propan-2-ol]
pest or weed control at 50 ppm [1, 6]: 80 to 100% | pest or weed control at 50 ppm [1, 3]: 0 to 80% | Disease Control SEPTTR 1DP ([2]; 50 ppm, 1DP): D | pest or weed control at 50 ppm [2, 5]: 0 to 80%

OC(Cn1nn[nH]c1=S)(c1ccc(F)cc1F)C(F)(F)c1ccc(OC2CC2(F)F)cn1 (centres unmarked) [Compound F10]
pest or weed control at 50 ppm [1, 6]: 80 to 100% | pest or weed control at 50 ppm [1, 3]: 80 to 100% | pest or weed control at 50 ppm [2, 4]: 80 to 100% | pest or weed control at 50 ppm [2, 5]: 80 to 100% | melting point: 53 to 57 °C

CSc1nnnn1CC(O)(c1ccc(F)cc1F)C(F)(F)c1ccc(Oc2ccc(C#N)cc2)cn1 (centres unmarked) [Compound F11, 4-((6-(2-(2,4-difluorophenyl)-1,1-difluoro-2-hydroxy-3-(5-(methylthio)-1H-tetrazol-1-yl)propyl)pyridin-3-yl)oxy)benzonitrile]
pest or weed control at 50 ppm [1, 3]: 80 to 100% | pest or weed control at 50 ppm [2, 4]: 80 to 100% | pest or weed control at 50 ppm [2, 5]: 80 to 100%

N#Cc1ccc(Oc2ccc(C(F)(F)C(O)(Cn3nn[nH]c3=S)c3ccc(F)cc3F)nc2)nc1 (centres unmarked) [Compound F3]
pest or weed control at 50 ppm [1, 6]: 80 to 100% | pest or weed control at 50 ppm [1, 3]: 80 to 100% | pest or weed control at 50 ppm [2, 4]: 80 to 100% | pest or weed control at 50 ppm [2, 5]: 0 to 80%

OC(Cn1nn[nH]c1=S)(c1ccc(F)cc1F)C(F)(F)c1ccc(COC(F)F)cn1 (centres unmarked) [Compound F9]
pest or weed control at 50 ppm [1, 6]: 80 to 100% | pest or weed control at 50 ppm [1, 3]: 80 to 100% | pest or weed control at 50 ppm [2, 4]: 80 to 100% | pest or weed control at 50 ppm [2, 5]: 80 to 100%
